The results in this text go back to ChEMBL document CHEMBL4265876, “Natural Products with Heteroatom-Rich Ring Systems” (J Nat Prod, 2017).

Structures are written as SMILES. ≈ marks a conversion by molar mass, not a printed value.

Assay [1] can be described thus: Inhibition of protein kinase A (unknown origin). Also on record: species or system Homo sapiens.
The next assay has as its system Aspergillus niger. The assay can be described thus: Antifungal activity against Aspergillus niger assessed as inhibition zone at 100 ug/hole. The assay is classed as functional.
In another assay the test system is Cercospora sojina. Kind of assay: Antifungal activity against Cercospora sojina assessed as inhibition zone at 100 ug/hole. The assay is classed as functional.
Another assay concerns Fusarium oxysporum. Kind of assay: Antifungal activity against Fusarium oxysporum assessed as inhibition zone at 100 ug/hole. Type of assay: functional.
Assay [2] has as its target Sodium-dependent dopamine transporter (Homo sapiens) (UniProt Q01959). Kind of assay: Inhibition of dopamine transporter (unknown origin) at 10 uM.
In a further assay the test system is 3T3-L1. Kind of assay: Cytotoxicity against mouse 3T3L1 cells assessed as decrease in cell viability. Type of assay: cell-based.
Assay [3] addresses C-X-C chemokine receptor type 4 (Rattus norvegicus) (UniProt O08565). The assay can be described thus: Antagonist activity at CXCR4 in rat GH4C1 cells assessed as inhibition of CXCL12-induced cell migration at 0.1 uM after 72 hrs by BrdU incorporation assay. The assay is classed as functional, cell-based.
Assay [4] concerns the target Sodium-dependent noradrenaline transporter (Homo sapiens) (UniProt P23975). Kind of assay: Inhibition of norepinephrine transporter (unknown origin) at 10 uM.
The next assay relates to C6. The assay can be described thus: Cytotoxicity against rat C6 cells assessed as decrease in cell viability. Type of assay: functional, cell-based.
In assay [5] the target is C-X-C chemokine receptor type 4 (Rattus norvegicus) (UniProt O08565). The assay can be described thus: Antagonist activity at CXCR4 in rat GH4C1 cells assessed as inhibition of CXCL12-induced DNA synthesis at 10 uM after 72 hrs by BrdU incorporation assay. The assay is classed as functional, cell-based. (In general: Incorporation of labelled thymidine or its analogues reports DNA synthesis.)
Chain of C-X-C chemokine receptor type 4 (Rattus norvegicus) (O08565 whole entry): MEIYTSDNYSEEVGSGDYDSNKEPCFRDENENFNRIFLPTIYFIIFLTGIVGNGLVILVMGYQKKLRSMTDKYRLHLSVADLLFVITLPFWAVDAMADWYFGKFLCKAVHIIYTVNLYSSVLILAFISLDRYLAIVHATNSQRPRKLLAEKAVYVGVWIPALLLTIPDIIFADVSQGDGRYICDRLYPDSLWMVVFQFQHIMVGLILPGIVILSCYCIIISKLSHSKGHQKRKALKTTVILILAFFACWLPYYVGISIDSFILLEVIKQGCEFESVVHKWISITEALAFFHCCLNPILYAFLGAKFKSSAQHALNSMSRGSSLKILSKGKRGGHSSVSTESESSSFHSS

The target of assay [6] is Sodium-dependent serotonin transporter (Homo sapiens) (UniProt P31645). Kind of assay: Inhibition of serotonin transporter (unknown origin) at 10 uM.
Chain of Sodium-dependent serotonin transporter (Homo sapiens) (P31645 whole entry, looked up): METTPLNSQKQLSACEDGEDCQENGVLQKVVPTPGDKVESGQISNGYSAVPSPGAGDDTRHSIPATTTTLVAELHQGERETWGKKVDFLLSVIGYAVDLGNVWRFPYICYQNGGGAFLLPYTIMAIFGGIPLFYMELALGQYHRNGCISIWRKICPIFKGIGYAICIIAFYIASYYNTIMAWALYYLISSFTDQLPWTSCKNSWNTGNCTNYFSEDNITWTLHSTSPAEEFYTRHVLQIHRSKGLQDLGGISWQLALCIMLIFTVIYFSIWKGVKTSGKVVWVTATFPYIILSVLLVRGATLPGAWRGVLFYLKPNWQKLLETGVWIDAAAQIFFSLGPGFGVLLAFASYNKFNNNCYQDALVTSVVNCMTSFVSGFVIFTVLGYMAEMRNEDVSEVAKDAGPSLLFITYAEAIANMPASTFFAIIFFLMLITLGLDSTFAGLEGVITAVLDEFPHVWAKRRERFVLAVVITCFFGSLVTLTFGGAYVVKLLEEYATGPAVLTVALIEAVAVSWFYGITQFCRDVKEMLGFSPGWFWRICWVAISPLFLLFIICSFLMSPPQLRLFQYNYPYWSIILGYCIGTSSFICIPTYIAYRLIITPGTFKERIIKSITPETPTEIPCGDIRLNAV
The next assay has as its system HeLa. The assay can be described thus: Cytotoxicity against human HeLa cells assessed as decrease in cell viability. Type of assay: functional, cell-based.
In assay [7] the target is Mu-type opioid receptor (Homo sapiens) (UniProt P35372). Kind of assay: Inhibition of mu opioid receptor (unknown origin) at 10 uM.
Chain of Mu-type opioid receptor (Homo sapiens) (P35372 whole entry): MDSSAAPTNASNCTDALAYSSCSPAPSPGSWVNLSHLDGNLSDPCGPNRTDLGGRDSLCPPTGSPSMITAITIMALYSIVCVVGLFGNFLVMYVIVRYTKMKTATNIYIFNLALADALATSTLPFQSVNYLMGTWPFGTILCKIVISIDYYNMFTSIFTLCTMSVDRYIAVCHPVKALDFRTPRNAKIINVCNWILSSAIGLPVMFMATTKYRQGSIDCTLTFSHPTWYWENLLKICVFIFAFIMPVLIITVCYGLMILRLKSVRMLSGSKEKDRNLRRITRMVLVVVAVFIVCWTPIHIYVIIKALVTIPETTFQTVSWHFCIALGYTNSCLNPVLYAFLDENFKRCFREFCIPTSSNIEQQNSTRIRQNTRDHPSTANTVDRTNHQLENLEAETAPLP
Assay [8] can be described thus: Antioxidant activity of the compound. The assay is classed as functional.
Assay [9] concerns L1210. The assay can be described thus: Cytotoxicity against mouse L1210 cells assessed as decrease in cell viability at 5 ug. The assay is classed as functional.
In another assay the test system is Micrococcus luteus. Kind of assay: Antibacterial activity against Micrococcus luteus assessed as inhibition zone at 20 ug. The assay is classed as functional. The settings on record: read-out: IZ.
In the next assay the test system is Human alphaherpesvirus 1. The assay can be described thus: Antiviral activity against HSV1. Type of assay: functional, organism-based.
Another assay concerns T-cell. The assay can be described thus: Inhibition of ConA-induced cell proliferation of BALB/c mouse T-lymphocytes assessed as reduction in [3H]thymidine incorporation incubated for 48 hrs by beta scintillation counting method. The assay is classed as functional.
In a further assay the test system is HeLa S3. The assay can be described thus: Cytotoxicity against human HeLaS3 cells. Type of assay: functional, cell-based.
A further assay concerns V79. Kind of assay: Cytotoxicity against chinese hamster V79 cells. Type of assay: cell-based. The note with it: Cricetulus griseus.
The test system of assay [10] is L1210. Kind of assay: Cytotoxicity against mouse L1210 cells. The assay is classed as functional, cell-based.
In a further assay the test system is Mucor hiemalis. Kind of assay: Antifungal activity against Mucor hiemalis assessed as inhibition zone at 50 ug/disk. The settings on record: read-out: IZ. The assay is classed as functional.
The next assay deals with Ruegeria atlantica. The assay can be described thus: […] activity against Ruegeria atlantica assessed as inhibition zone at 50 ug/disk. Type of assay: functional. The settings on record: read-out: IZ.
Another assay deals with Escherichia coli. The assay can be described thus: Antibacterial activity against Escherichia coli assessed as inhibition zone at 50 ug/disk. The note with it: read-out: IZ. Type of assay: functional.
Another assay deals with Staphylococcus aureus. The assay can be described thus: Antibacterial activity against Staphylococcus aureus assessed as inhibition zone at 50 ug/disk. The assay is classed as functional. The settings on record: read-out: IZ.
For a further assay, the system named is Saccharomyces cerevisiae. Kind of assay: Antifungal activity against Saccharomyces cerevisiae assessed as inhibition zone at 50 ug/disk. The assay is classed as functional. The settings on record: read-out: IZ.
The test system of the next assay is HGC-27. Kind of assay: Growth inhibition of human HGC27 cells after 48 hrs by MTT assay. Type of assay: functional, cell-based. The settings on record: HGC-27, 48 h. A general note: Tetrazolium dyes change colour on reduction, which living cells bring about.
In the next assay the test system is Influenza A virus. The assay can be described thus: Antiviral activity against Influenza A virus (A/Hanfang/359/95(H3N2)). The assay is classed as functional, organism-based.
Another assay has as its system K562. The assay can be described thus: Cytotoxicity against human K562 cells assessed as decrease in cell viability after 48 hrs by MTT assay. The assay is classed as functional, cell-based. The settings on record: K562, 48 h.
The next assay has as its system A549. Kind of assay: Cytotoxicity against human A549 cells assessed as decrease in cell viability after 48 hrs by MTT assay. The assay is classed as functional, cell-based. The settings on record: A549, 48 h.

Chain of Sodium-dependent noradrenaline transporter (Homo sapiens) (P23975 whole entry): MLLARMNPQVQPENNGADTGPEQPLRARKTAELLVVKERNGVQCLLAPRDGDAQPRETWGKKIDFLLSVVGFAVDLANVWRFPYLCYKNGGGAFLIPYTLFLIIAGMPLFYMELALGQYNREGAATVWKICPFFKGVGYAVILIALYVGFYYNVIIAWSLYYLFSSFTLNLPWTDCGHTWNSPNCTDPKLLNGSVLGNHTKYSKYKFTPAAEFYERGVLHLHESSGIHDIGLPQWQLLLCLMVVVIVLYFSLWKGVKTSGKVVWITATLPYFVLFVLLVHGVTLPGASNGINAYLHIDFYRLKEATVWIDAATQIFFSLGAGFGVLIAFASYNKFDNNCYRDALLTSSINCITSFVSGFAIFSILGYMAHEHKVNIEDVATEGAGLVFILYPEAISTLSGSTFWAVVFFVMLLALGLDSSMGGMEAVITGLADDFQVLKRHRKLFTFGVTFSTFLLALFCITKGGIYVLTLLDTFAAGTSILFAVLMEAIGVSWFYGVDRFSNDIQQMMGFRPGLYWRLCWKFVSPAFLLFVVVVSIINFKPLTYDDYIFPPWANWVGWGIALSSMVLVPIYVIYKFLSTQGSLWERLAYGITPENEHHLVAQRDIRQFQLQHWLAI
Chain of Sodium-dependent dopamine transporter (Homo sapiens) (Q01959 whole entry): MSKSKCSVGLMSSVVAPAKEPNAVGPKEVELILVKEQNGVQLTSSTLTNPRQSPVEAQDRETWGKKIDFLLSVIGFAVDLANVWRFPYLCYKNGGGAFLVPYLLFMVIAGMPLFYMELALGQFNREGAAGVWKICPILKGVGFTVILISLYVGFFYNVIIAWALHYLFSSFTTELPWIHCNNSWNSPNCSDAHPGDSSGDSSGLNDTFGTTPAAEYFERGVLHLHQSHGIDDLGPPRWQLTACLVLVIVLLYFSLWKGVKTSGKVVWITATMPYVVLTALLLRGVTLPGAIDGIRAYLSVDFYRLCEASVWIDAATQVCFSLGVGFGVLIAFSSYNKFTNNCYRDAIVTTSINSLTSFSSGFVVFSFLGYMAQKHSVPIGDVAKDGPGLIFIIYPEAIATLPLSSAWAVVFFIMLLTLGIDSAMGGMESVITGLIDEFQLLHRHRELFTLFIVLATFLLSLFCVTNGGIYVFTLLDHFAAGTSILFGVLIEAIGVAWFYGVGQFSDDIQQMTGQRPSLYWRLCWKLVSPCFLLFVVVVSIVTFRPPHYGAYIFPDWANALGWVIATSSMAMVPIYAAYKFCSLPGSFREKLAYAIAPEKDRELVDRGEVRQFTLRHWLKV

One may read the IC50 as the midpoint of a concentration-inhibition curve. `NCCc1cc(O)c(O)c2c1SSSSS2`: the IC50 in assay [1] is more than 25 µg/mL.
As to `CC(=O)O[C@H]1CC[C@]23C[C@]24CC[C@]2(C)[C@@H]([C@H](C)CCC5OOC(C)(C)O5)CC[C@@]2(C)[C@@H]4CC[C@H]3C1(C)C` (stereo partly specified), the “inhibition zone (IZ)” value in the assay on Aspergillus niger, in the assay on Cercospora sojina and in the assay with Fusarium oxysporum was 2 mm throughout.
Usually inhibition stands for the relative decrease from the control value, in per cent. As for `N=C(N)NCCCCCNc1noc(Cc2c[nH]c3cc(Br)ccc23)n1`, the inhibition in assay [2] worked out at 101%; in [3] it was 100%; in assay [4], 68%; in assay [5], 50%; in assay [6], 22%; in [7], 103%. In addition, the IC50 with 3T3-L1 was found to be 140 nM; in the assay on C6, 1500 nM; in the assay on HeLa it was 1500 nM.
Molecule `CC[C@H](C)C1=C(O)[N@@+]2([O-])Oc3ccc(-c4c(O)c(O)c(-c5ccc(O)cc5)c(OC(C)=O)c4OC(C)=O)cc3O[C@@]2([C@@H](C)CC)C(=O)N1OC` displayed an IC50 in assay [8] of 29100 nM.
As for `N[C@@H]1CSCON2CCc3c([nH]c4ccc(O)c(Br)c34)[C@H]12` [EUDISTOMIN E], the Activity in the assay with L1210 [9] worked out at 100%. For the same molecule, the zone of inhibition at 20 µg/disc in the assay on Micrococcus luteus was 46 mm.
Turning to `C=C[C@H](O)Cc1nsc(C2=CCCS[C@@]23C(=O)Nc2ccccc23)n1`, the IC50 in the assay on Human alphaherpesvirus 1 stood at 25900 nM.
In the case of `COC1=C[C@@H](C)O[C@@H](O[C@H]2CC[C@@]3(C)C(=CC[C@@H]4[C@@H]3CC[C@@]3(C)[C@H]4CC[C@]3(O)[C@H](C)O[C@H]3C[C@H]4OCO[C@@]5(C[C@@H](OC)[C@H](O[C@H]6C[C@H](OC)[C@H](O[C@H]7C[C@@H](O)[C@H](O[C@H]8C[C@H](OC)[C@H](O[C@H]9C[C@@H](OC)[C@H](O)[C@@H](C)O9)[C@@H](C)O8)[C@@H](C)O7)[C@@H](C)O6)[C@@H](C)O5)O[C@@H]4[C@@H](C)O3)C2)C1=O`, in the assay on T-cell, the IC50 is 290 to 1970 nM.
Same read-out and setting: the same measure for `COC1=C[C@@H](C)O[C@@H](O[C@H]2CC[C@@]3(C)C(=CC[C@@H]4[C@@H]3CC[C@@]3(C)[C@H]4CC[C@]3(O)[C@H](C)O[C@H]3C[C@H]4OCO[C@@]5(C[C@@H](OC)[C@H](O[C@H]6C[C@H](OC)[C@H](O[C@H]7C[C@@H](O)[C@H](O[C@H]8C[C@H](OC)[C@H](O[C@H]9C[C@H](O)[C@H](OC(C)=O)[C@@H](C)O9)[C@@H](C)O8)[C@@H](C)O7)[C@@H](C)O6)[C@@H](C)O5)O[C@@H]4[C@@H](C)O3)C2)C1=O`: 290 to 1970 nM.
Consider `CN1CN2CCCN3CCCC(=N1)C32` (stereo unspecified), for which, in the assay on HeLa S3, half-maximal inhibition (IC50) was put at 6.8 µg/mL (≈ 35 µM).
In the case of `COc1cc(CCN(C)C)c2c(c1O)SSSSS2` [ISOLISSOCLINOTOXIN B], the IC50 in the assay with V79 is 250 nM; with L1210 [10], 640 nM.
Turning to `CO[C@H]1C[C@H](O[C@@H]2[C@@H](C)O[C@@]3(C[C@H]2OC)OCO[C@@H]2C[C@H](O[C@@H](C)[C@@]4(O)CC[C@H]5[C@@H]6CC=C7C[C@@H](O)CC[C@]7(C)[C@H]6CC[C@@]54C)O[C@H](C)[C@H]2O3)O[C@H](C)[C@H]1O[C@H]1C[C@@H](O)[C@H](O[C@H]2C[C@H](OC)[C@H](O[C@H]3C[C@@H](OC)[C@H](O)[C@@H](C)O3)[C@@H](C)O2)[C@@H](C)O1`, the concentration for half-maximal inhibition (IC50) with T-cell was 290 to 1970 nM.
Consider `COc1c(OC)c2c(c(CCN(C)C)c1SC)SSSSS2`, for which the IC50 with V79 is 150 nM; in [1], more than 25 µg/mL. The zone of inhibition at 50 µg/disc in the assay with Mucor hiemalis, in the assay on Ruegeria atlantica, in the assay with Escherichia coli, in the assay on Staphylococcus aureus and in the assay on Saccharomyces cerevisiae was 14.2 to 30 mm each time.
On to `Oc1ccc(Cc2nsc(Cc3ccc(O)cc3)n2)cc1`, for which, in the assay with HGC-27, the IC50 amounted to 172000 nM.
Consider `C=C[C@@H](O)Cc1nsc(C2=CCCS[C@]23C(=O)Nc2ccccc23)n1`, for which the half-inhibitory concentration (IC50) with Influenza A virus and in the assay with Human alphaherpesvirus 1 was 33300 nM throughout.
In turn, `CC[C@H](C)C1=C(O)[N@+]2([O-])Oc3ccc(-c4c(O)c(O)c(-c5ccc(O)cc5)c(OC(C)=O)c4OC(C)=O)cc3O[C@@]2([C@@H](C)CC)C(=O)N1OC` gave an IC50 in assay [8] of 25000 nM.
Consider `CC1=C(c2ccccc2)N(C)NC(=O)N1`, for which the IC50 with K562 amounted to 66900 nM; in the assay on A549, 21800 nM.
